According to the NIST ThermoML archive (doi:10.1021/je200806n):

Test: xn = mol fraction of the nth substance listed
Conditions: 101.3 kPa, Liquid

O=C1CCCCC1 [cyclohexanone] + CCC(C)O
Conditions | mass density, 298.15 K [kg/m3] | mass density, 303.15 K [kg/m3] | mass density, 308.15 K [kg/m3] | mass density, 313.15 K [kg/m3] | viscosity, 298.15 K [mPa·s] | viscosity, 303.15 K [mPa·s] | viscosity, 308.15 K [mPa·s] | viscosity, 313.15 K [mPa·s]
x1 = 0.0814 | 814.99 | 811.03 | 805.17 | 800.53 | 2.511 | 2.163 | 1.828 | 1.441
x1 = 0.1598 | 826.39 | 822.21 | 816.34 | 811.48 | 2.067 | 1.82 | 1.561 | 1.186
x1 = 0.2444 | 838.54 | 834.13 | 828.18 | 823.15 | 1.737 | 1.535 | 1.33 | 0.982
x1 = 0.3514 | 853.71 | 849.09 | 843.19 | 838.01 | 1.472 | 1.305 | 1.128 | 0.841
x1 = 0.4404 | 866.19 | 861.39 | 855.62 | 850.33 | 1.361 | 1.206 | 1.039 | 0.794
x1 = 0.5596 | 882.62 | 877.71 | 872.19 | 866.91 | 1.332 | 1.183 | 1.036 | 0.825
x1 = 0.6523 | 895.31 | 890.36 | 884.99 | 879.69 | 1.4 | 1.249 | 1.108 | 0.914
x1 = 0.738 | 906.94 | 901.93 | 896.81 | 891.52 | 1.501 | 1.354 | 1.224 | 1.051
x1 = 0.8494 | 921.86 | 916.99 | 912.09 | 907.01 | 1.704 | 1.558 | 1.41 | 1.248
x1 = 0.9361 | 933.34 | 928.57 | 924.04 | 918.99 | 1.889 | 1.716 | 1.572 | 1.43
x1 = 1 | 941.91 | 937.24 | 932.67 | 927.72 | 2.057 | 1.847 | 1.694 | 1.546

CCCCCC(C)O (stereo unspecified) [2-heptanol] + O=C1CCCCC1
Conditions | mass density, 298.15 K [kg/m3] | mass density, 303.15 K [kg/m3] | mass density, 308.15 K [kg/m3] | mass density, 313.15 K [kg/m3] | viscosity, 298.15 K [mPa·s] | viscosity, 303.15 K [mPa·s] | viscosity, 308.15 K [mPa·s] | viscosity, 313.15 K [mPa·s]
x2 = 0 | 813.18 | 809.26 | 805.01 | 801.14 | 5.023 | 4.151 | 3.478 | 2.852
x2 = 0.0826 | 820.37 | 816.21 | 811.69 | 807.61 | 4.282 | 3.546 | 2.94 | 2.412
x2 = 0.1625 | 827.64 | 823.36 | 818.81 | 814.53 | 3.64 | 2.986 | 2.448 | 1.989
x2 = 0.2415 | 835.26 | 830.91 | 826.28 | 821.87 | 3.081 | 2.473 | 1.999 | 1.604
x2 = 0.3506 | 846.69 | 842.19 | 837.46 | 832.94 | 2.401 | 1.874 | 1.482 | 1.151
x2 = 0.44 | 856.83 | 852.22 | 847.44 | 842.79 | 1.954 | 1.468 | 1.141 | 0.862
x2 = 0.5603 | 871.72 | 866.99 | 862.12 | 857.35 | 1.513 | 1.107 | 0.849 | 0.627
x2 = 0.6494 | 883.79 | 878.98 | 874.11 | 869.26 | 1.308 | 0.971 | 0.773 | 0.576
x2 = 0.7394 | 896.96 | 892.15 | 887.29 | 882.32 | 1.243 | 0.976 | 0.816 | 0.647
x2 = 0.85 | 914.67 | 909.91 | 905.04 | 900.06 | 1.391 | 1.193 | 1.054 | 0.91
x2 = 0.9392 | 930.26 | 925.58 | 920.79 | 915.85 | 1.727 | 1.535 | 1.411 | 1.256
